Source: PMC6680430, “Quantitative Prediction of Human Pharmacokinetics and Pharmacodynamics of CKD519, a Potent Inhibitor of Cholesteryl Ester Transfer Protein (CETP)” (Pharmaceutics, 2019)

Key:
[1] = preclinical in vitro and in vivo efficacy studies (off-target effects)
[2] = absolute bioavailability from first-in-human study (observed oral AUC vs predicted intravenous AUC); type: in vivo; settings: AUC ratio observed oral / predicted intravenous
From the text: The absolute bioavailability was estimated for each dose (Table 7) by comparing the AUC of the observed oral PK profile in the first-in-human study and that of the predicted human i.v. PK profile from animal PK data. […] Even though the trends were similar, absolute bioavailability estimated by the observed PK profile was less than one-fifth of the predicted bioavailability using the animal PK data. […] Delayed absorption was also found, and the difference in formulation between animals and humans was considered to have caused the delay by affecting the absorption rate. Simulated AUC, Cmax, and Tmax were within 2-folds, the range that is generally accepted for animal-to-human predictions.

[3] = target: T1, cholesteryl ester transfer protein (CETP) (Homo sapiens, UniProt P11597); experiment: in vitro potency, CETP inhibition (in-house data); settings: read-out: IC50 (in vitro potency)
T1 sequence (P11597 18-493): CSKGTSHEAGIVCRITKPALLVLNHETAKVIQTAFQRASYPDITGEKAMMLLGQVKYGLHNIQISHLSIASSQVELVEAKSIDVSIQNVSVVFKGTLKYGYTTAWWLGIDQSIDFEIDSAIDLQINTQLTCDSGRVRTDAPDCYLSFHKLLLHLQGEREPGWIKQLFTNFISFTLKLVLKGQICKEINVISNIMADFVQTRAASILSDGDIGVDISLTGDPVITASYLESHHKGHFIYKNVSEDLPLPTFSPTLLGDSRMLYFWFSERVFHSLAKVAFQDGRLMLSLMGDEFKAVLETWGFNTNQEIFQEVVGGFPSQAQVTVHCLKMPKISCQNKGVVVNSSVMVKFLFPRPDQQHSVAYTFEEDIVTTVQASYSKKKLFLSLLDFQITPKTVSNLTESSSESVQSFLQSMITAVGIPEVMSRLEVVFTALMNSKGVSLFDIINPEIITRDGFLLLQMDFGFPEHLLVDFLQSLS

[4] = animal full PK study in rats (NCA and PK model); type: in vivo; settings: rat; for Tmax: median (range)
Description: Animal PK data for analysis were collected from preclinical studies performed at ChongKunDang laboratory. All animal experiments were performed with relevant guidelines and regulations, and the protocol was approved by the Institutional Animal Care and Use Committee (IACUC) of ChongKunDang (Approval number: S-13-015). A single dose of CKD519 was administered either orally or via intravenous infusion to hamsters (intravenous dose of 0.5 mg/kg, oral dose of 3, 15, or 45 mg/kg, n = 30); rats (intravenous dose of 0.5 mg/kg, oral dose of 5, 15, or 45 mg/kg, n = 20); and monkeys (intravenous dose of 0.1 mg/kg, oral dose of 1, 5, or 30 mg/kg, n = 16). The identical solution was administered to all animal species in the fasted state. Plasma CKD519 concentration was measured before and at 0.083, 0.25, 0.5, 1, 2, 4, 8, and 24 h after administration in hamsters and rats, and before and at 0.083, 0.25, 0.5, 1, 2, 4, 6, 8, 12, 24, 48, and 72 h after administration in monkeys. Two hamsters given identical doses were sampled in a rotating manner.
The plasma samples were stored at −70 °C before the analysis and were thawed at room temperature. […] A sensitive, specific, and validated liquid chromatography coupled with a tandem mass spectrometer (HPLC-MS/MS) assay was used for the determination of CKD519 concentration in animal plasma samples. A structural analogue of CKD519 was used as the internal standard. The validated working range was from 2 ng/mL (the lower limit of quantification, LLOQ) to 20,000 ng/mL. Quality control (QC) samples were analyzed together with the study samples. Intra-day and inter-day precision and accuracy results were within the acceptance criteria based on the Ministry of Food and Drug Safety (MFDS) guidelines. An exploratory data analysis was performed through non-compartmental analysis (NCA) using the NonCompart package (developed by Bae, version 0.4.4) in R (version 3.5.1, The R Foundation, Vienna, Austria).
Using the PK data from each species, nonlinear mixed-effect modeling was conducted using NONMEM (version 7.4, Icon Development Solutions, Ellicott City, MD, USA) reflecting the clues from NCA. The first-order conditional estimation method with interaction (FOCE-I) was used whenever applicable. The adequacy of the model was checked using changes in the objective function value (OFV), visual inspection of various diagnostic plots (goodness-of-fit (GOF) plot), and methods of visual predictive check (VPC) and bootstrap were used for the diagnostics on the model stability and parameter reliability. The significance of model improvement was evaluated using a likelihood-ratio test (LRT). In the nested models, the result was considered statistically significant if the OFV decreased more than 3.84 (p-value < 0.05, degree of freedom (df) = 1) and 5.99 (p-value < 0.05, df = 2). The degree of freedom is defined as the gap of the numbers of parameters of the two subsequent models that are being compared. In the case of non-nested models, the Akaike information criteria (AIC) value was used to select the model that best described the data. R (version 3.5.1., R Foundation for Statistical Computing, Vienna, Austria) was used for data preparation, NCA, graphical analysis, model diagnostics, and statistical summaries.
Initially, a two-compartment model with first-order absorption was developed to describe the biphasic curve, and several absorption structures (e.g., zero-order with absorption lag time, Weibull-type absorption) were applied to the base model if needed. The change in absolute bioavailability (F) by dose levels was also considered. […]

[5] = PK model, final estimate (%RSE)
[6] = intravenous 0.5 mg/kg, NCA, mean ± SD
[7] = two-compartment PK model, final estimate (%RSE)

SMILES: COc1cc(F)c(C(C)C)cc1C1=C(CN2C(=O)O[C@H](c3cc(C(F)(F)F)cc(C(F)(F)F)c3)[C@@H]2C)CC(C)(C)CC1 [CKD519]
- off-target effects [1]: no off-target effects
- Absolute Bioavailability ([2]; oral dose 25 mg): 0.0362
- Absolute Bioavailability ([2]; oral dose 50 mg): 0.0321
- Absolute Bioavailability ([2]; oral dose 100 mg): 0.0191
- Absolute Bioavailability ([2]; oral dose 200 mg): 0.0140
- Absolute Bioavailability ([2]; oral dose 400 mg): 0.00814
- IC50 [3]: 2.3 nM
- α (scale parameter of Weibull absorption) [4, 5]: 3.86 (3.94%)
- β (shape parameter of Weibull absorption) [4, 5]: 2.59 (4.59%)
- AUClast [4, 6]: 3940 ± 585 ng·h/mL
- V/F * (V for intravenous) [4, 6]: 494 ± 126 mL
- ke [4, 6]: 0.0677 ± 0.0214 h⁻¹
- t1/2 [4, 6]: 12.0 ± 2.98 h
- Tmax ([4]; intravenous 0.5 mg/kg, NCA): 0.083 (0.083–0.083) h
- AUClast ([4]; oral 5 mg/kg, NCA, mean ± SD): 6640 ± 932 ng·h/mL
- CL/F ([4]; oral 5 mg/kg, NCA, mean ± SD): 188 ± 28.6 mL/h
- Cmax ([4]; oral 5 mg/kg, NCA, mean ± SD): 893 ± 231 ng/mL
- V/F ([4]; oral 5 mg/kg, NCA, mean ± SD): 2860 ± 1930 mL
- ke ([4]; oral 5 mg/kg, NCA, mean ± SD): 0.0784 ± 0.0245 h⁻¹
- t1/2 ([4]; oral 5 mg/kg, NCA, mean ± SD): 10.0 ± 4.78 h
- Tmax ([4]; oral 5 mg/kg, NCA): 3 (3–4) h
- AUClast ([4]; oral 15 mg/kg, NCA, mean ± SD): 11600 ± 3240 ng·h/mL
- CL/F ([4]; oral 15 mg/kg, NCA, mean ± SD): 323 ± 82.8 mL/h
- Cmax ([4]; oral 15 mg/kg, NCA, mean ± SD): 2040 ± 448 ng/mL
- V/F ([4]; oral 15 mg/kg, NCA, mean ± SD): 4770 ± 1740 mL
- ke ([4]; oral 15 mg/kg, NCA, mean ± SD): 0.0701 ± 0.0107 h⁻¹
- t1/2 ([4]; oral 15 mg/kg, NCA, mean ± SD): 10.1 ± 1.82 h
- Tmax ([4]; oral 15 mg/kg, NCA): 2 (2–4) h
- AUClast ([4]; oral 45 mg/kg, NCA, mean ± SD): 12700 ± 1900 ng·h/mL
- CL/F ([4]; oral 45 mg/kg, NCA, mean ± SD): 887 ± 140 mL/h
- V/F ([4]; oral 45 mg/kg, NCA, mean ± SD): 10100 ± 1380 mL
- ke ([4]; oral 45 mg/kg, NCA, mean ± SD): 0.0876 ± 0.00791 h⁻¹
- t1/2 ([4]; oral 45 mg/kg, NCA, mean ± SD): 7.97 ± 0.782 h
- Tmax ([4]; oral 45 mg/kg, NCA): 3 (2–5) h
- CL [4, 7]: 0.0326 (5.58%) L/h
- Q [4, 7]: 0.0404 (12.0%) L/h
- Vc [4, 7]: 0.0287 (6.41%) L
- Vp [4, 7]: 0.285 (8.21%) L
